We go through 26 compounds from patent US9896440B2, “Aryl substituted heterocyclyl sulfones” (GRÜNENTHAL GMBH, priority 2014, dated 2018).

T1 sequence (Q00975 whole entry): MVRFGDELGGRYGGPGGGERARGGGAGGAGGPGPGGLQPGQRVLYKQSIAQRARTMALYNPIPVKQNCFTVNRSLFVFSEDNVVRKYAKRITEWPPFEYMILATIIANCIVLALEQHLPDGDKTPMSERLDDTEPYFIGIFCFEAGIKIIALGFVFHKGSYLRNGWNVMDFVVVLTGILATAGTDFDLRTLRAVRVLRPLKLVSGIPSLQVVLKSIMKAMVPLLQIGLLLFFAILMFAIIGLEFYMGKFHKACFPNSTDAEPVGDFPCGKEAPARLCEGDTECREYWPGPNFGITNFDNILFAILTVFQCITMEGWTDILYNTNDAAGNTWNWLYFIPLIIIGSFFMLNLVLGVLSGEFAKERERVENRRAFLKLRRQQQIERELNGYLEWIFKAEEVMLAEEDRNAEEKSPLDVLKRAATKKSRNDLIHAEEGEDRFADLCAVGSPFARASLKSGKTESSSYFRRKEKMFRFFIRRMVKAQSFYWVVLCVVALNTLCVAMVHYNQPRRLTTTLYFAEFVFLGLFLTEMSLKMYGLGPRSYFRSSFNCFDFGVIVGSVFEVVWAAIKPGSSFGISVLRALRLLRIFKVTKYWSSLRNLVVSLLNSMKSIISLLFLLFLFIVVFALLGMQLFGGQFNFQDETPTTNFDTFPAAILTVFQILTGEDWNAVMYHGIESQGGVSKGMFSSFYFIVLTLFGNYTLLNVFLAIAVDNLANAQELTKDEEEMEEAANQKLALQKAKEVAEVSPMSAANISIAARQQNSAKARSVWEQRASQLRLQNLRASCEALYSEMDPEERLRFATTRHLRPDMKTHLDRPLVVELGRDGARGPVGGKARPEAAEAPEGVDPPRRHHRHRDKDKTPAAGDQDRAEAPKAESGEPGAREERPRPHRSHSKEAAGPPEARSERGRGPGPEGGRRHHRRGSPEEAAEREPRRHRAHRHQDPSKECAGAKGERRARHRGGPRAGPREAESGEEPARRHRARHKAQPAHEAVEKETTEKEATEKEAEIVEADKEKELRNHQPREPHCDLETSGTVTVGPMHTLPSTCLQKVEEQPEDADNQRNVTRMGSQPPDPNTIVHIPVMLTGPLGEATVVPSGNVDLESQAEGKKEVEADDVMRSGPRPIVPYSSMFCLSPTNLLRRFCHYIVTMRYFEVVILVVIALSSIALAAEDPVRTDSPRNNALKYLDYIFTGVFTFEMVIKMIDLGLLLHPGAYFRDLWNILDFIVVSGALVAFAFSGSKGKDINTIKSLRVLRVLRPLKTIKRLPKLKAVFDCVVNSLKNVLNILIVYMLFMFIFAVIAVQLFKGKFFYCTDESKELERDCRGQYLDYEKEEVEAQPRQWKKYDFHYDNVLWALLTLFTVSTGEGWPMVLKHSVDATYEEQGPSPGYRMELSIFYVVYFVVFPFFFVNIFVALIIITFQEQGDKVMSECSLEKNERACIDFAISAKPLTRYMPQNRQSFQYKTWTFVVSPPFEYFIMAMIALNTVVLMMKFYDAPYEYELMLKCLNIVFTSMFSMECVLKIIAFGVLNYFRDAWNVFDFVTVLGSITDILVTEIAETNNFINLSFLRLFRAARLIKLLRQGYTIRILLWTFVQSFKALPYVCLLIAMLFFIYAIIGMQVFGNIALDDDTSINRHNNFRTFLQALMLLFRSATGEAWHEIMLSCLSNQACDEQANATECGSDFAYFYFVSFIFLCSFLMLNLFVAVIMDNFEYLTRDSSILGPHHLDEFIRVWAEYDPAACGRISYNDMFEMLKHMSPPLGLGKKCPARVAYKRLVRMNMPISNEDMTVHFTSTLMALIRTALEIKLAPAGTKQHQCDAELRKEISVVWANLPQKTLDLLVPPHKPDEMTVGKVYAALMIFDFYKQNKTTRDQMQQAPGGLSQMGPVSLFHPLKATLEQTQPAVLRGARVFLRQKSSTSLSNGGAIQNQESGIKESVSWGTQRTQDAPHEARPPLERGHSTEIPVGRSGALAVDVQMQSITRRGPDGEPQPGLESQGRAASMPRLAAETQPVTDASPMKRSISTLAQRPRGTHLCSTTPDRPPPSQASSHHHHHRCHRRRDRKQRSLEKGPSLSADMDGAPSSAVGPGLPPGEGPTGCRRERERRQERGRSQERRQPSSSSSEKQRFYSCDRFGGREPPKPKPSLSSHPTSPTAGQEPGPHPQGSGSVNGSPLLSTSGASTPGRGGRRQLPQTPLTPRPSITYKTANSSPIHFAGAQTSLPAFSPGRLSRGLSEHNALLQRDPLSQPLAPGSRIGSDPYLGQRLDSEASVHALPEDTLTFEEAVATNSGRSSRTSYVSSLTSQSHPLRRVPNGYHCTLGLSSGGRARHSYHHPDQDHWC

One assay has as its target T1, Human CaV2.2 channels (Homo sapiens, UniProt Q00975).
T1 construct: expressed in transfected cells; Kir2.3 also stably co-expressed
In words: Fluorescence assay for CaV2.2 channels using potassium depolarization to induce channel opening (FLIPR, Fluo 4). In kind it is cell-based. As to conditions: 3 μM test compound, 30 mM KCl assay buffer (inactivated channel state), HEK293 cells. From the text:
In the process, the Ca^2+ influx is quantified in the FLIPR assay with the aid of a Ca^2+-sensitive dye (type Fluo-4, Molecular Probes Europe BV, Leiden, the Netherlands) in a fluorescent imaging plate reader (FLIPR 3, Molecular Devices, Sunnyvale, USA), as described hereinafter.
Human CaV2.2 channels were stably expressed in HEK293 cells together with alpha2-delta and beta subunits of voltage gated calcium channels. In addition, an inwardly rectifying potassium channel (Kir2.3) was stably expressed in these cells to augment control of the cell membrane potential by the concentration of extracellular potassium ions. Raise of the extracellular potassium concentration leads to depolarization of the membrane potential and thus regulates the voltage dependent state of CaV2.2 channels. For preparation, cells were seeded in black poly-D-lysine coated 96-well plates (Becton Dickinson, Biocoat 4640) in 100 μL medium [500 mL DMEM/F-12 plus Glutamax (Invitrogen 31331-093) plus 5.5 mL MEM NEAA 100× (Invitrogen 11140-035) plus 50 mL FBS decomplemented (Invitrogen 10270-106) plus 200 μg/mL Geneticin (Invitrogen 10131-027) plus 50 μg/mL Hygromycin B (Invitrogen 10687-010) plus 2 μg/mL Blasticidin (anti-bl5b Invivo-Gen) plus 0.2 μg/mL Puromycin (A 11138-03)] at a cell density of 30.000 cells per well. Plates were incubated at 37° C. (5% CO2) for 20 to 23 h. On the day of experiment medium was discarded and cells were loaded with Fluo 4 by addition of 100 μL of basic assay buffer (10 mM HEPES, 1 mM KCl, 149 mM NaCl, 0.8 mM CaCl2, 1.7 mM MgCl2, 10 mM Glucose, 0.1% BSA. pH 7.4) containing 2 μM Fluo 4 (Molecular Probes; F-14201), 0.01% pluronic acid (Molecular Probes; P-6866) and 2.5 mM probenecid (Molecular Probes; P36400). Cells were incubated in the dark at 25° C. for 60 min. Then dye containing buffer was discarded and 100 μL basic (1 mM KCl) or alternative (30 mM KCl) assay buffer was added. The alternative assay buffer contained altered concentrations of KCl (30 mM) and NaCl (120 mM) and was used in order to promote the inactivated channel state. After that 25 μL of basic or alternative assay buffer with or without test compound were added and cells were incubated again in the dark at 25° C. for 15 min. Fluorescence intensity was measured on a FLIPR 3 instrument (Molecular Devices Corp., Sunnyvale, Calif.) with excitation at 480 nm and emission at 535 nm. After continuously reading fluorescence for 30 sec, 50 μL of basic assay buffer containing 210 mM KCl (NaCl omitted) were added for depolarization. Peak fluorescent signal intensity was determined and the amplitude of the peak signal, normalized to base line, was used to measure channel inhibition by test compounds.
With `CC1(S(=O)(=O)c2cccc(C(F)(F)F)c2)CCOC(c2ccc(S(C)(=O)=O)c(F)c2)C1` (centres unmarked) [SC-209, 2-(3-Fluoro-4-methylsulfonyl-phenyl)-4-methyl-4-[[3-(trifluoromethyl)phenyl]sulfonyl]-tetrahydro-pyran], the “Activity Category: %-Inhib (CaV2.2) @3 μM @30 mM KCl” value (from here on “Activity Category: %-Inhib”) is “B (%-Inhibition >75% up to ≦95%)”.

With `CC1(S(=O)(=O)c2cccc(C(F)(F)F)c2)CCOC(c2ccc(F)c(S(C)(=O)=O)c2)C1` (centres unmarked) [SC-213, 2-(4-Fluoro-3-methylsulfonyl-phenyl)-4-methyl-4-[[3-(trifluoromethyl)phenyl]sulfonyl]-tetrahydro-pyran], the “Activity Category: %-Inhib” value was “B (%-Inhibition >75% up to ≦95%)”.

`CN(C)CC1(S(=O)(=O)c2cccc(C(F)(F)F)c2)CCOC(c2ccc(Cl)cc2)C1` (centres unmarked) [SC-214, [[2-(4-Chlorophenyl)-4-[[3-(trifluoromethyl)phenyl]sulfonyl]-tetrahydro-pyran-4-yl]-methyl]-dimethyl-amine]: the “Activity Category: %-Inhib” value is recorded as “A (%-Inhibition >95%)”. Same read-out and setting: the same measure for `CN(C)CC1(S(=O)(=O)c2cccc(C(F)(F)F)c2)CCOC(c2ccc(Cl)cc2)C1` (centres unmarked) [SC-215, [[2-(4-Chlorophenyl)-4-[[3-(trifluoromethyl)phenyl]sulfonyl]-tetrahydro-pyran-4-yl]-methyl]-dimethyl-amine]: “C (%-Inhibition >40% up to ≦75%)”; for `COCC1(S(=O)(=O)c2cccc(C(F)(F)F)c2)CCOC(c2ccc(Cl)cc2)C1` (centres unmarked) [SC-216, 2-(4-Chlorophenyl)-4-(methoxymethyl)-4-[[3-(trifluoromethyl)phenyl]sulfonyl]-tetrahydro-pyran]: “B (%-Inhibition >75% up to ≦95%)”. As to `COCC1(S(=O)(=O)c2cccc(C(F)(F)F)c2)CCOC(c2ccc(Cl)cc2)C1` (centres unmarked) [SC-217, 2-(4-Chlorophenyl)-4-(methoxymethyl)-4-[[3-(trifluoromethyl)phenyl]sulfonyl]-tetrahydro-pyran], the “Activity Category: %-Inhib” value is “C (%-Inhibition >40% up to ≦75%)”. The same measure, in the same setting: the same measure for `CC1(S(=O)(=O)c2cccc(C(F)(F)F)c2)CCOC(c2ccccc2S(C)(=O)=O)C1` (centres unmarked) [SC-222, 4-Methyl-2-(2-methylsulfonyl-phenyl)-4-[[3-(trifluoromethyl)phenyl]sulfonyl]-tetrahydro-pyran]: “A (%-Inhibition >95%)”; for `CC1(S(=O)(=O)c2cccc(C(F)(F)F)c2)CCOC(c2ccccc2S(C)(=O)=O)C1` (centres unmarked) [SC-223, 4-Methyl-2-(2-methylsulfonyl-phenyl)-4-[[3-(trifluoromethyl)phenyl]sulfonyl]-tetrahydro-pyran]: “C (%-Inhibition >40% up to ≦75%)”. On the same count and under the same terms, the same measure for `Cc1cc(Cl)ccc1C1CC(C)(S(=O)(=O)c2cccc(C(F)(F)F)c2)CCO1` (centres unmarked) [SC-225, 2-(4-Chloro-2-methyl-phenyl)-4-methyl-4-[[3-(trifluoromethyl)phenyl]sulfonyl]-tetrahydro-pyran]: “A (%-Inhibition >95%)”. In the case of `CCC1(S(=O)(=O)c2cccc(C(F)(F)F)c2)CCOC(c2ccc(Cl)cc2)C1` (centres unmarked) [SC-231, 2-(4-Chlorophenyl)-4-ethyl-4-[[3-(trifluoromethyl)phenyl]sulfonyl]-tetrahydro-pyran], the “Activity Category: %-Inhib” value is “B (%-Inhibition >75% up to ≦95%)”.

The assay is the same for the next values; noted with them: HEK293, 3 μM test compound, 30 mM KCl assay buffer (inactivated channel state), HEK293 cells; read-out: Activity Category: %-Inhib (CaV2.2) @3 μM @30 mM KCl.
On to `Cc1cc(C2CC(C)(S(=O)(=O)c3cccc(C(F)(F)F)c3)CCO2)ccc1S(C)(=O)=O` (centres unmarked) [SC-206, 4-Methyl-2-(3-methyl-4-methylsulfonyl-phenyl)-4-[[3-(trifluoromethyl)phenyl]sulfonyl]-tetrahydro-pyran], for which the inhibition at 3 µM is above 95%. Still for that read-out and setting: the result for `CC1(S(=O)(=O)c2cccc(C(F)(F)F)c2)CCOC(c2ccc(S(C)(=O)=O)c(F)c2)C1` (centres unmarked) [SC-208, 2-(3-Fluoro-4-methylsulfonyl-phenyl)-4-methyl-4-[[3-(trifluoromethyl)phenyl]sulfonyl]-tetrahydro-pyran] reads above 95%; that for `Cc1ccc(C2CC(C)(S(=O)(=O)c3cccc(C(F)(F)F)c3)CCO2)cc1S(C)(=O)=O` (centres unmarked) [SC-210, 4-Methyl-2-(4-methyl-3-methylsulfonyl-phenyl)-4-[[3-(trifluoromethyl)phenyl]sulfonyl]-tetrahydro-pyran], above 95%; that for `CC1(S(=O)(=O)c2cccc(C(F)(F)F)c2)CCOC(c2ccc(F)c(S(C)(=O)=O)c2)C1` (centres unmarked) [SC-212, 2-(4-Fluoro-3-methylsulfonyl-phenyl)-4-methyl-4-[[3-(trifluoromethyl)phenyl]sulfonyl]-tetrahydro-pyran], above 95%. Same read-out and setting: the same measure for `CC1(S(=O)(=O)c2cccc(C(F)(F)F)c2)CCOC(c2ccc(S(C)(=O)=O)cc2Cl)C1` (centres unmarked) [SC-218, 2-(2-Chloro-4-methylsulfonyl-phenyl)-4-methyl-4-[[3-(trifluoromethyl)phenyl]sulfonyl]-tetrahydro-pyran]: above 95%. On to `CC1(S(=O)(=O)c2cccc(C(F)(F)F)c2)CCOC(c2cccc(S(C)(=O)=O)c2)C1` (centres unmarked) [SC-220, 4-Methyl-2-(3-methylsulfonyl-phenyl)-4-[[3-(trifluoromethyl)phenyl]sulfonyl]-tetrahydro-pyran], for which the inhibition at 3 µM was in the range of 75 to 95%. Same read-out and setting: the same measure for `Cc1cc(Cl)ccc1C1CC(C)(S(=O)(=O)c2cccc(C(F)(F)F)c2)CCO1` (centres unmarked) [SC-224, 2-(4-Chloro-2-methyl-phenyl)-4-methyl-4-[[3-(trifluoromethyl)phenyl]sulfonyl]-tetrahydro-pyran]: 75 to 95%; for `COc1cc(C2CC(C)(S(=O)(=O)c3cccc(C(F)(F)F)c3)CCO2)ccc1Cl` (centres unmarked) [SC-226, 2-(4-Chloro-3-methoxy-phenyl)-4-methyl-4-[[3-(trifluoromethyl)phenyl]sulfonyl]-tetrahydro-pyran]: above 95%; for `CC1(S(=O)(=O)c2cccc(C(F)(F)F)c2)CCOC(c2ccc(F)c(Cl)c2)C1` (centres unmarked) [SC-228, 2-(3-Chloro-4-fluoro-phenyl)-4-methyl-4-[[3-(trifluoromethyl)phenyl]sulfonyl]-tetrahydro-pyran]: above 95%. Still for that read-out and setting: the result for `CCC1(S(=O)(=O)c2cccc(C(F)(F)F)c2)CCOC(c2ccc(Cl)cc2)C1` (centres unmarked) [SC-230, 2-(4-Chlorophenyl)-4-ethyl-4-[[3-(trifluoromethyl)phenyl]sulfonyl]-tetrahydro-pyran] reads above 95%. Still for that read-out and setting: the same measure for `CC1(S(=O)(=O)c2cccc(C(F)(F)F)c2)CCOC(c2ccc(C(F)(F)F)cc2S(C)(=O)=O)C1` (centres unmarked) [SC-232, 4-Methyl-2-[2-methylsulfonyl-4-(trifluoromethyl)-phenyl]-4-[[3-(trifluoromethyl)phenyl]sulfonyl]-tetrahydro-pyran]: above 95%; for `CC1(S(=O)(=O)c2cccc(C(F)(F)F)c2)CCOC(c2ccc(S(C)(=O)=O)c(C(F)(F)F)c2)C1` (centres unmarked) [SC-235, 4-Methyl-2-[4-methylsulfonyl-3-(trifluoromethyl)-phenyl]-4-[[3-(trifluoromethyl)phenyl]sulfonyl]-tetrahydro-pyran]: above 95%. On to `CC1(S(=O)(=O)c2cccc(C(F)(F)F)c2)CCOC(c2ccc(Cl)c(S(C)(=O)=O)c2)C1` (centres unmarked) [SC-237, 2-(4-Chloro-3-methylsulfonyl-phenyl)-4-methyl-4-[[3-(trifluoromethyl)phenyl]sulfonyl]-tetrahydro-pyran], for which the inhibition at 3 µM was above 95%.

With `CC1(S(=O)(=O)c2cccc(C(F)(F)F)c2)CCOC(c2ccc(S(C)(=O)=O)c(Cl)c2)C1` (centres unmarked) [SC-239, 2-(3-Chloro-4-methylsulfonyl-phenyl)-4-methyl-4-[[3-(trifluoromethyl)phenyl]sulfonyl]-tetrahydro-pyran], the inhibition at 3 µM is above 95%. The same measure, in the same setting: the result for `CC1(S(=O)(=O)c2cccc(C(F)(F)F)c2)CCOC(c2ccc(S(C)(=O)=O)cc2F)C1` (centres unmarked) [SC-241, 2-(2-Fluoro-4-methylsulfonyl-phenyl)-4-methyl-4-[[3-(trifluoromethyl)phenyl]sulfonyl]-tetrahydro-pyran] reads above 95%. Regarding `CC1(S(=O)(=O)c2cccc(C(F)(F)F)c2)CCOC(c2cc(Cl)cc(S(C)(=O)=O)c2)C1` (centres unmarked) [SC-243, 2-(3-Chloro-5-methylsulfonyl-phenyl)-4-methyl-4-[[3-(trifluoromethyl)phenyl]sulfonyl]-tetrahydro-pyran], the inhibition at 3 µM is above 95%.
